Reference: publication PMC4725628 (International Journal of Nanomedicine, 2016)

Columns and labels:
[1] = mice, 60 mg/kg, within 1 hour
Caco-2 cell homogenates = assay: Degradation in Caco-2 cell homogenates; type: in vitro ADME, human; details: 37°C, within 120 minutes
[2] = In vivo pharmacokinetic study in rats; parameters: species or system Sprague Dawley rats
Caco-2 cells [3] = assay: Uptake into Caco-2 cell monolayers; type: in vitro ADME, human
Caco-2 cells [4] = assay: MTT cytotoxicity assay; type: cell-based, human; details: 10–200 μg/mL
MTT cytotoxicity assay = type: cell-based, human; details: human, Caco-2 cells
Caco-2 cell monolayers = assay: TEER of Caco-2 cell monolayers; type: cell-based, human; details: Caco-2 monolayers; HM formulations 40 μg/mL, TMC 0.1% w/w
[5] = Bidirectional transport across Caco-2 cell monolayers; type: in vitro ADME; details: human
[6] = Sprague Dawley, rat, plasma, po, 60 mg/kg

Question: Which results are given for `COc1ccc2c(c1)[nH]c1c(C)nccc12` [HM, Harmine]?
Answer: Decrease of retention amount in the stomach [1]: about 10%; HM degraded (Caco-2 cell homogenates): more than 60%; AUC ([2]; Sprague Dawley, rat, plasma, iv, 20 mg/kg): 12900 ± 1250 ng·h/mL; AUC [2, 6]: 9760 ± 2340 ng·h/mL; Cmax [2, 6]: 3110 ± 320 ng/mL; BA (oral bioavailability) ([2]; rats, IG 60 mg/kg versus HM IV 20 mg/kg): 25.25±6.05%; Effect of endocytosis inhibitor CPZ on uptake (Caco-2 cells [3]): did not affect; Effect of energy inhibitor NaN3 on uptake (Caco-2 cells [3]): did not affect; Effect of p-gp inhibitor CyA on uptake (Caco-2 cells [3]): did not affect; Toxicity to Caco-2 cells (Caco-2 cells [4]): almost no toxicity; viability at 24 h, 200 μg/mL (MTT cytotoxicity assay): > 90%; Reduction of TEER (Caco-2 cell monolayers): lower than 15%; Papp at 2 h [5]: > 1 ×10⁻⁶ cm/s; Papp at 2 h, 40 μg/mL [5]: 5.11 ± 0.69 ×10⁻⁶ cm/s
